PubChem BioAssay (NCI)
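Dose response: 5 concentrations. Exposure: 48 h. Format: 96-well plates. Endpoint: linear interpolation; highest concentration if not reached. The concentration for full growth arrest is given as TGI.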

Key:
Assay in all cases: inhibition of tumour cell growth, NCI panel, 48 h
786-0 renal = tested on: 786-0 renal
EKVX NSCLC = tested on: EKVX NSCLC
HL-60(TB) leukemia = tested on: HL-60(TB) leukemia
HS 578T breast = tested on: HS 578T breast
KM12 colon = tested on: KM12 colon
LOX IMVI melanoma = tested on: LOX IMVI melanoma
MDA-N = tested on: MDA-N
MOLT-4 leukemia = tested on: MOLT-4 leukemia
NCI-H226 lung = tested on: NCI-H226 lung
NCI-H23 lung = tested on: NCI-H23 lung
NCI/ADR-RES ovarian = tested on: NCI/ADR-RES ovarian
OVCAR-4 ovarian = tested on: OVCAR-4 ovarian
PC-3 prostate = tested on: PC-3 prostate
RPMI-8226 leukemia = tested on: RPMI-8226 leukemia
SF-539 CNS = tested on: SF-539 CNS
SK-MEL-28 melanoma = tested on: SK-MEL-28 melanoma
SK-OV-3 ovarian = tested on: SK-OV-3 ovarian
SNB-19 CNS = tested on: SNB-19 CNS
SW-620 colon = tested on: SW-620 colon

Compound	TGI (786-0 renal)	TGI (EKVX NSCLC)	TGI (HL-60(TB) leukemia)	TGI (HS 578T breast)	TGI (KM12 colon)	TGI (LOX IMVI melanoma)	TGI (MDA-N)	TGI (MOLT-4 leukemia)	TGI (NCI-H226 lung)	TGI (NCI-H23 lung)	TGI (NCI/ADR-RES ovarian)	TGI (OVCAR-4 ovarian)	TGI (PC-3 prostate)	TGI (RPMI-8226 leukemia)	TGI (SF-539 CNS)	TGI (SK-MEL-28 melanoma)	TGI (SK-OV-3 ovarian)	TGI (SNB-19 CNS)	TGI (SW-620 colon)
CN(C)CCNC(=O)Cn1cnc2cccc([N+](=O)[O-])c2c1=O	> 100 µM	> 100 µM	> 100 µM	> 100 µM	> 100 µM	> 100 µM	> 100 µM	> 100 µM	> 100 µM	> 100 µM	> 100 µM	> 100 µM	> 100 µM	> 100 µM	> 100 µM	> 100 µM	> 100 µM	> 100 µM	> 100 µM
COc1cccc(Nc2nc(N)nc(N)c2N)c1	> 100 µM	> 100 µM	> 100 µM	> 100 µM	> 100 µM	40.2 µM	36.8 µM	34.5 µM	> 100 µM	> 100 µM	> 100 µM	> 100 µM	> 100 µM	68.3 µM	> 100 µM	> 100 µM	> 100 µM	> 100 µM	91.1 µM
CC(=O)c1ccc2c(c1)CC1(C2)Cc2ccc3c(c2C1=O)CCC3 (stereo not given)	40.8 µM	–	48.3 µM	> 100 µM	> 100 µM	> 100 µM	94.6 µM	> 100 µM	> 100 µM	> 100 µM	71.9 µM	> 100 µM	> 100 µM	> 100 µM	> 100 µM	56.5 µM	> 100 µM	> 100 µM	> 100 µM
NC(=O)SCCC(N)C(=O)O (stereo not given)	> 100 µM	> 100 µM	> 100 µM	> 100 µM	> 100 µM	> 100 µM	> 100 µM	> 100 µM	> 100 µM	> 100 µM	> 100 µM	> 100 µM	> 100 µM	> 100 µM	> 100 µM	> 100 µM	> 100 µM	> 100 µM	> 100 µM
COC(=O)C(COC(=O)/C=C/c1ccc(OC(C)=O)c(OC(C)=O)c1)NC(=O)/C=C/c1ccc(OC(C)=O)c(OC(C)=O)c1 (stereo not given)	47.2 µM	> 100 µM	> 100 µM	> 100 µM	38.8 µM	53.8 µM	71.7 µM	> 100 µM	> 100 µM	73.4 µM	> 100 µM	62.8 µM	32.6 µM	> 100 µM	> 100 µM	81.7 µM	> 100 µM	> 100 µM	> 100 µM
O=c1cc(N=Nc2ccc(Cl)c(Cl)c2)[nH]c(=O)[nH]1	2.86 µM	3.49 µM	0.941 µM	13.1 µM	6.15 µM	3.36 µM	3.36 µM	6.48 µM	33.2 µM	10.7 µM	3.93 µM	8.08 µM	13.6 µM	5.6 µM	8.04 µM	3.3 µM	30 µM	26.6 µM	3.26 µM
CC(C)C[C@H](NC(=O)[C@H](Cc1ccc(F)cc1)NC(=O)c1ccccn1)B(O)O	< 0.01 µM	0.0933 µM	> 100 µM	< 0.0121 µM	< 0.01 µM	< 0.01 µM	< 0.01 µM	> 100 µM	< 0.01 µM	< 0.01 µM	0.0212 µM	< 0.0326 µM	< 0.01 µM	> 100 µM	< 0.01 µM	< 0.01 µM	1.07 µM	> 33.4 µM	< 0.01 µM
CCN(CCCl)c1cc(CN(C)C)cc(NC(=O)C23CCC(C(=O)Nc4cc(CN(C)C)cc(N(CC)CCCl)c4)(CC2)CC3)c1	1 µM	–	> 100 µM	2.53 µM	3.17 µM	1.57 µM	2.38 µM	0.503 µM	4 µM	4.71 µM	> 100 µM	5.12 µM	1.95 µM	> 100 µM	2.15 µM	3.55 µM	4.24 µM	3.3 µM	1.65 µM
OC(c1ccc2c(c1)OCO2)c1ccc2c(c1)OCO2	> 100 µM	> 100 µM	> 100 µM	> 100 µM	> 100 µM	> 100 µM	> 100 µM	> 100 µM	> 100 µM	> 100 µM	> 100 µM	> 100 µM	> 100 µM	> 100 µM	> 100 µM	> 100 µM	> 100 µM	> 100 µM	> 100 µM
O=C(NC(Cc1cnc[nH]1)C(=O)N1CCCC1)C1CCCC1 (stereo not given)	> 100 µM	> 100 µM	> 100 µM	> 100 µM	> 100 µM	> 100 µM	> 100 µM	> 100 µM	> 100 µM	> 100 µM	> 100 µM	> 100 µM	> 100 µM	> 100 µM	–	> 100 µM	> 100 µM	> 100 µM	> 100 µM
O=C1c2c(ccc3c2CCC3)CC12Cc1ccccc1C2	91.5 µM	> 100 µM	34.9 µM	> 100 µM	51.4 µM	31 µM	90.5 µM	30.1 µM	62.8 µM	> 100 µM	> 100 µM	> 100 µM	> 100 µM	44.3 µM	74.8 µM	80.4 µM	> 100 µM	> 100 µM	93.7 µM
O=C1OC(C2(O)OC(=O)c3ccccc32)c2ccccc21 (stereo not given)	> 100 µM	> 100 µM	> 100 µM	> 100 µM	> 100 µM	> 100 µM	> 100 µM	> 100 µM	> 100 µM	> 100 µM	> 100 µM	> 100 µM	> 100 µM	> 100 µM	> 100 µM	> 100 µM	> 100 µM	> 100 µM	> 100 µM
C[N+](C)(C)CC(=O)N/N=C(\C(=O)NC1=C(Cl)C(=O)c2ccccc2C1=O)C(C#N)c1nc(-c2ccc([N+](=O)[O-])cc2)cs1 (stereo not given)	29.1 µM	34.2 µM	47.4 µM	40.6 µM	63.7 µM	9.48 µM	3.2 µM	53.7 µM	38.6 µM	11.4 µM	> 57.5 µM	23.3 µM	56.8 µM	47 µM	22.3 µM	17.6 µM	41.8 µM	39.8 µM	31.6 µM
COc1ccc(C2=C(N)c3ncccc3C2=O)cc1	> 100 µM	> 100 µM	> 100 µM	> 100 µM	> 100 µM	> 100 µM	> 100 µM	> 100 µM	> 100 µM	> 100 µM	> 100 µM	> 100 µM	> 100 µM	> 100 µM	> 100 µM	> 100 µM	> 100 µM	> 100 µM	> 100 µM
COc1cc2c(cc1O)C1(Cc3ccc4c(c3C1=O)OCO4)N(C)CC2 (stereo not given)	> 100 µM	> 100 µM	> 100 µM	> 100 µM	> 100 µM	–	> 100 µM	> 100 µM	> 100 µM	> 100 µM	> 100 µM	> 100 µM	> 100 µM	> 100 µM	> 100 µM	> 100 µM	> 100 µM	> 100 µM	> 100 µM
N=CN=CC(=S)O[C@@H]1C(=O)N2CCC[C@@]23CCCC[C@@H]13	> 12.5 µM	> 12.5 µM	> 12.5 µM	> 12.5 µM	> 12.5 µM	> 12.5 µM	> 12.5 µM	–	> 12.5 µM	> 12.5 µM	> 12.5 µM	> 12.5 µM	> 12.5 µM	> 12.5 µM	–	> 12.5 µM	> 12.5 µM	> 12.5 µM	–
Cc1ccnc2[nH]c(-c3ccc(F)cc3)cc(=O)c12	> 100 µM	> 100 µM	38.5 µM	> 100 µM	> 100 µM	> 100 µM	> 53.9 µM	> 100 µM	> 100 µM	> 100 µM	> 100 µM	> 100 µM	> 100 µM	> 100 µM	> 100 µM	> 100 µM	> 100 µM	> 100 µM	> 100 µM
COc1cc2c(cc1OC)C(=O)C1(C2)[C@H](c2ccccc2)C2C(=O)c3cc(OC)c(OC)cc3C2[C@H]1c1ccccc1 (stereo not given in full)	> 100 µM	> 100 µM	> 100 µM	> 100 µM	> 100 µM	> 100 µM	> 100 µM	> 100 µM	> 100 µM	> 100 µM	> 100 µM	> 100 µM	> 100 µM	> 100 µM	> 100 µM	> 100 µM	> 100 µM	> 100 µM	> 100 µM
CSC1=NNC(SC)=NN1	0.328 µM	0.327 µM	0.407 µM	0.38 µM	0.376 µM	0.287 µM	0.319 µM	0.114 µM	0.389 µM	0.7 µM	> 1 µM	0.309 µM	0.303 µM	> 1 µM	0.413 µM	0.326 µM	0.382 µM	0.336 µM	0.307 µM
CCN(CC)c1ccc(/C=C/C(=O)c2cc(C(C)(C)C)c(O)c(C(C)(C)C)c2)cc1	> 81.2 µM	> 100 µM	> 39.2 µM	> 39.9 µM	> 30.3 µM	> 100 µM	13.5 µM	> 100 µM	99.1 µM	> 100 µM	26.9 µM	> 100 µM	> 100 µM	38.8 µM	10.5 µM	> 100 µM	> 100 µM	> 100 µM	> 100 µM
CC(=O)OCC1OC(O[C@@H]2C[C@H]3C(C)(C)[C@@H](OC(C)=O)CC[C@]3(C)[C@H]3CC[C@]45C[C@]4(CC[C@H]5[C@@H](C)C[C@@H](O)[C@H](O)C(C)(C)F)[C@@]32C)C(O)C(O)C1O (stereo not given in full)	3.24 µM	3.21 µM	2.75 µM	5.85 µM	> 100 µM	4.33 µM	3.09 µM	4.28 µM	–	4.56 µM	29.6 µM	> 100 µM	91.5 µM	4.24 µM	3.51 µM	3.3 µM	> 100 µM	3.1 µM	4.85 µM
CC1(c2ccc(Cl)s2)CC(c2ccc(Cl)s2)=C(C#N)C(=C(C#N)C#N)N1 (stereo not given)	40.6 µM	32.6 µM	40.1 µM	61.6 µM	36 µM	44.3 µM	49.5 µM	> 100 µM	> 100 µM	42.2 µM	38.8 µM	33.2 µM	33.5 µM	> 100 µM	68.7 µM	50.5 µM	30.5 µM	44.2 µM	52.4 µM
CC1CN(c2cc3c(cc2F)c(=O)c(C(=O)O)cn3-c2ccc(F)cn2)CC(C)N1 (stereo not given)	> 100 µM	> 100 µM	> 100 µM	> 100 µM	> 100 µM	> 100 µM	> 100 µM	> 100 µM	> 100 µM	> 100 µM	> 100 µM	> 100 µM	> 100 µM	> 100 µM	> 100 µM	> 100 µM	> 100 µM	> 100 µM	> 100 µM
CCN(CC)C1C(=O)NC1C#Cc1ccccc1 (stereo not given)	> 100 µM	> 100 µM	> 100 µM	> 100 µM	> 100 µM	> 100 µM	> 100 µM	–	> 100 µM	> 100 µM	> 100 µM	> 100 µM	> 100 µM	> 100 µM	> 100 µM	> 100 µM	> 100 µM	> 100 µM	> 100 µM
COc1ccc(NC(C)=O)c(C(O)CCNC(C)=O)c1 (stereo not given)	> 100 µM	> 100 µM	> 100 µM	> 100 µM	> 100 µM	> 100 µM	> 100 µM	> 100 µM	> 100 µM	> 100 µM	> 100 µM	> 100 µM	> 100 µM	> 100 µM	> 100 µM	–	> 100 µM	> 100 µM	> 100 µM
